Patent publication US8053460B2, “Indole derivatives having antitumor activity” (Sigma-Tau Industrie Farmaceutiche Riunite S.p.A., priority 2005, dated 2011)
Like-named read-outs stand apart in the source and are kept apart here.

Tests used:
Format in all cases: cell-based
[1] = test system: NB4 human promyelocytic leukaemia cells; assay: Cytotoxicity (sulphorodamine B) on NB4 tumour cells
Protocol: (§1) To test the effects of the compounds on cell growth, NB4 human promyelocytic leukaemia, NCI-H460 non-small cell carcinoma cells and HCT-116 human colon carcinoma cells were used. NB4 and NCI-H460 tumour cells were grown RPMI 1640 containing 10% fetal bovine serum (GIBCO), whereas HCT-116 tumour cells were grown in McCoy's 5A containing 10% fetal bovine serum (GIBCO).
(§2) Tumour cells were seeded in 96-well tissue culture plates (Corning) at approximately 10% confluence and were allowed to attach and recover for at least 24 h. Varying concentrations of the drugs were then added to each well to calculate their IC50 value (the concentration which inhibits the 50% of cell survival). The plates were incubated for 24 h at 37° C. At the end of the treatment, for NB4 tumour cells in suspension, the procedure was performed as follows: medium culture was removed by centrifugation of the plates at 1600×g for 10 min and the surnatant was removed. 250 μl PBS were added, then the plates were centrifuged at 1600×g for 10 min, the surnatant was removed. 200 μl/well of medium culture RPMI 1640 containing 10% FCS were added and the plates were incubated at 37° C. for other 48 h. The plates were centrifuged again at 1600×g for 10 min, the medium culture was removed and 200 μl PBS and 50 μl of cold 80% TCA were added. The plates were incubated on ice for at least 1 h. TCA was removed, the plates were washed 3 times for immersion in distilled-water and dried on paper and at 40° C. for 5 min. Then 200 μl of 0.4% sulphorodamine B in 1% acetic acid were added. The plates were incubated at room temperature for other 30 min. Sulphorodamine B was removed, the plates were washed for immersion in 1% acetic acid for 3 times, then they were dried on paper and at 40° C. for 5 min. Then 200 μl Tris 10 mM were added, the plates were kept under stirring for 20 min. The survival cell was determined as optical density by a Multiskan spectrofluorimeter at 540 nm. For the tumour cells in adhesion (NCI-H460 and HCT-116), the procedure was as above mentioned, except that at the end of the treatment, the plates were washed by remotion of the surnatant and addition of PBS 3 times without centrifugation. Also the last day of the assay, the surnatant was removed without centrifugation.
(§3) The amount of cells killed was calculated as the percentage decrease in sulphorodamine B binding compared with control cultures. The IC50 values (the concentration which inhibits the 50% of cell survival) were calculated with the “ALLFIT” program.

[2] = test system: NCI-H460 non-small cell carcinoma cells; assay: Cytotoxicity (sulphorodamine B) on NCI-H460 tumour cells; conditions: Homo sapiens
Protocol: as §1, §2, §3

[3] = test system: HCT-116 human colon carcinoma cells; assay: Cytotoxicity (sulphorodamine B) on HCT-116 tumour cells; conditions: HCT-116 cells, 24 h treatment then 48 h recovery, read-out: HCT-116 IC50 ± SD
Protocol: as §1, §2, §3

[4] = Homo sapiens, NB-4, NB4 cells, 24 h treatment then 48 h recovery, sulphorodamine B, read-out: NB4 IC50 ± SD
[5] = NB4 cells, 24 h treatment then 48 h recovery, sulphorodamine B, read-out: NB4 IC50 ± SD
[6] = NCI-H460 cells, 24 h treatment then 48 h recovery, sulphorodamine B, read-out: NCI-H460 IC50 ± SD
[7] = range stated jointly for NCI-H460 non-small cell lung cancer and HCT-116 colon cancer, read-out: IC50 values on NCI-H460 and HCT-116 (range given)
[8] = Homo sapiens, range stated jointly for NB4, NCI-H460 and HCT-116, minor cytotoxicity, read-out: IC50 values on NB4 or NCI-H460 and HCT-116 (range given)

Compound	IC50 [1, 4] [nM]	IC50 [1, 5] [nM]	IC50 [2, 6] [nM]	IC50 [2, 7] [nM]	IC50 [3] [nM]	IC50 [1, 8] [nM]
COc1cccc2c(C(CCCCCC(=O)NO)c3c[nH]c4c(OC)cccc34)c[nH]c12 [ST3043, 7,7-Bis-(7-methoxy-1H-indol-3-yl)-heptanoic acid hydroxyamide]	400 to 2300	800 ± 10	550 ± 30	270 to 700	410 ± 30	–
O=C(CCCCCC(c1c[nH]c2cccc(F)c12)c1c[nH]c2cccc(F)c12)NO [ST3052, 7,7-Bis-(4-fluoro-1H-indol-3-yl)-heptanoic acid hydroxyamide]	400 to 2300	600 ± 90	700 ± 90	270 to 700	400 ± 100	–
Cc1ccc2[nH]cc(C(CCCCCC(=O)NO)c3c[nH]c4ccc(C)cc34)c2c1 [ST3044, 7,7-Bis-(5-methyl-1H-indol-3-yl)-heptanoic acid hydroxyamide]	150	–	510 ± 100	270 to 700	270 ± 10	–
O=C(CCCCCc1c[nH]c2ccccc12)NO [ST2995, N-hydroxy-6-(1H-indol-3-yl)hexanamide]	8800 ± 500	–	22000 ± 1700	–	–	8800 to 88800
O=C(C=Cc1ccc(C(c2c[nH]c3ccccc23)c2c[nH]c3ccccc23)cc1)NO [ST2887, 3-{4-[Bis-(1H-indol-3-yl)-methyl]-phenyl}-N-hydroxy-acrylamide]	400 to 2300	600 ± 10	2600 ± 300	600 to 5800	3900 ± 500	–
O=C(CCCCCCC(c1c[nH]c2ccccc12)c1c[nH]c2ccccc12)NO [ST2889, 8,8-Bis-(1H-indol-3-yl)-octanoic acid hydroxyamide]	–	–	2700 ± 200	600 to 5800	3500 ± 200	–
O=C(CCCCC(c1c[nH]c2ccccc12)c1c[nH]c2ccccc12)NO [ST2754, 6,6-Bis-(1H-indol-3-yl)-hexanoic acid hydroxyamide]	–	–	5200 ± 300	600 to 5800	5800 ± 200	–
O=C(CCCCCC(C1C=Nc2ccc(CN3CCOCC3)cc21)C1C=Nc2ccc(CN3CCOCC3)cc21)NO (centres unmarked) [ST3307, 7,7-Bis-(5-morpholin-4-ylmethyl-3H-indol-3-yl)-heptanoic acid hydroxyamide]	400 to 2300	420 ± 20	1100 ± 100	600 to 5800	–	–
O=C(CCCC(c1c[nH]c2ccccc12)c1c[nH]c2ccccc12)NO [ST2743, 5,5-Bis-(1H-indol-3-yl)-pentanoic acid hydroxyamide]	–	–	88800 ± 2800	–	–	8800 to 88800
O=C(O)CCCCCC(c1c[nH]c2ccccc12)c1c[nH]c2ccccc12 [ST3127, 7,7-Bis-(1H-indol-3-yl)-heptanoic acid]	> 20000	–	> 20000	–	> 20000	8800 to 88800
O=C(CCCCCC(c1cc2ccccc2[nH]1)c1c[nH]c2ccccc12)NO (centres unmarked) [ST3292, 7-(1H-Indol-3-yl)-7-(1H-indol-2-yl)-heptanoic acid hydroxyamide]	400 to 2300	670 ± 10	820 ± 70	600 to 5800	–	–
O=C(CCCCCC(c1c[nH]c2ccccc12)c1c[nH]c2ccccc12)NO [ST2741, 7,7-Bis-(1H-indol-3-yl)-heptanoic acid hydroxyamide]	400 to 2300	600 ± 10	1200 ± 100	600 to 5800	600 ± 20	–
O=C(CCC(c1c[nH]c2ccccc12)c1c[nH]c2ccccc12)NO [ST2408, N-Hydroxy-4,4-bis-(1H-indol-3-yl)-butyramide]	14600 ± 600	–	25900 ± 300	–	–	8800 to 88800
